Measured values taken from US12384770B2, “Heterocyclic compound” (Takeda Pharmaceutical Company Limited, priority 2019, dated 2025).
Entries after “also recorded” stand apart in the source; their conditions may differ.

molecular target: T1, HDAC6 enzyme (Homo sapiens, UniProt Q9UBN7); experiment: HDAC6 enzyme inhibitory assay (HDAC-Glo I/II Assay kit); type: biochemical; details: wells without enzyme = 100% inhibition, 10 µM
T1 construct: HDAC6 enzyme prepared by transducing full length HDAC6 gene into Sf-9 insect cells; GST; purchased SignalChem; host or cells: Sf-9 insect cells
T1 sequence (Q9UBN7 1-1215): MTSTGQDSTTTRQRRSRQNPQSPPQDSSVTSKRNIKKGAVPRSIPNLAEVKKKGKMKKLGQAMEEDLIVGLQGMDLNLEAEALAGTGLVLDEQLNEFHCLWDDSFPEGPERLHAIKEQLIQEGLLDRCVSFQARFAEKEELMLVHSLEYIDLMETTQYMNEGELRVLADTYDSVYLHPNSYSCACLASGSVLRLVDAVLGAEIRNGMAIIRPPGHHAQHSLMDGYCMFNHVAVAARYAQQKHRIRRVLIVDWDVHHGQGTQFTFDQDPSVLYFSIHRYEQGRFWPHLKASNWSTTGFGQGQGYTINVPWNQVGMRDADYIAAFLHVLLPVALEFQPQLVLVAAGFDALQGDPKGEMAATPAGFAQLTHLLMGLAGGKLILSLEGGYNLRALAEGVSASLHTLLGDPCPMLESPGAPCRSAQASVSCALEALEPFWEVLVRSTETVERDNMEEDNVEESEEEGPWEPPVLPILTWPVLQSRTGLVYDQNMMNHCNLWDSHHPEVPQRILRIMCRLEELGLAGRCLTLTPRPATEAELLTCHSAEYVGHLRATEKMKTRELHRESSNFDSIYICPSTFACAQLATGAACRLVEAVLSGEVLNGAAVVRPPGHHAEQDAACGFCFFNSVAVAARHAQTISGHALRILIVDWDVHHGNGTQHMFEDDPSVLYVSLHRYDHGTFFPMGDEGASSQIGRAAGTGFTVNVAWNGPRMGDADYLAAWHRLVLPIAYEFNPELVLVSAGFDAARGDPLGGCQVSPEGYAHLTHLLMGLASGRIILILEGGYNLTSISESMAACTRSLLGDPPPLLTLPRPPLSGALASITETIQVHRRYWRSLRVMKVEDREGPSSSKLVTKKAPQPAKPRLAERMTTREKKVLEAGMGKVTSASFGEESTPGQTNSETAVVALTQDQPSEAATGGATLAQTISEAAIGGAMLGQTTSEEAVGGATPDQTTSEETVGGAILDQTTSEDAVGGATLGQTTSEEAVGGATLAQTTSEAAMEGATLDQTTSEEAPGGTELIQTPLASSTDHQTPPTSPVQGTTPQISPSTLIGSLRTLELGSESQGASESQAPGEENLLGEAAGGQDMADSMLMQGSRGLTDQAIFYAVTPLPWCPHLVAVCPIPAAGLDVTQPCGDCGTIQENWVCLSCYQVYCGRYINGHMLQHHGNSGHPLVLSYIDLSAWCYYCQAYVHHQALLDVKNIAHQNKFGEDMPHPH
Procedure, shortened: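 Full-length GST-purified HDAC6 from Sf-9 cells preincubated with compound 60 min at room temperature in Tris-HCl pH 7.5 buffer with MgCl2, KCl, NaCl, glutathione, Tween-20. Substrate-developer reaction 20 min, luminescence read; no-enzyme wells set as 100% inhibition.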

SMILES	HDAC6 inhibitory rate (%) (10 μM)
O=C1c2cc(-c3nnc(C(F)F)o3)ccc2CN1[C@H](c1ccc(F)cn1)[C@@H](O)c1ccc(F)cn1 [Example 5, 2-[(1R,2R)-1,2-bis(5-fluoropyridin-2-yl)-2-hydroxyethyl]-6-[5-(difluoromethyl)-1,3,4-oxadiazol-2-yl]-2,3-dihydro-1H-isoindol-1-one]	99
O=C1c2cc(-c3nnc(C(F)F)o3)ccc2CN1[C@H](c1ccc(F)cc1F)[C@@H](O)c1ccc(F)cc1 (single isomer, unassigned) [Example 33, 6-[5-(difluoromethyl)-1,3,4-oxadiazol-2-yl]-2-[(1R*,2S*)-1-(2,4-difluorophenyl)-2-(4-fluorophenyl)-2-hydroxyethyl]-2,3-dihydro-1H-isoindol-1-one]	100
O=C1c2cc(-c3nnc(C(F)F)o3)ccc2CN1[C@H](c1cccc(F)n1)[C@@H](O)c1cccc(F)n1 (single isomer, unassigned) [Example 118, 2-[(1R*,2R*)-1,2-bis(6-fluoropyridin-2-yl)-2-hydroxyethyl]-6-[5-(difluoromethyl)-1,3,4-oxadiazol-2-yl]-2,3-dihydro-1H-isoindol-1-one]	102
O=C1c2cc(-c3nnc(C(F)F)o3)ccc2CN1[C@H](c1ccccc1)[C@@H](O)c1ccccn1 (single isomer, unassigned) [Example 48, 6-[5-(difluoromethyl)-1,3,4-oxadiazol-2-yl]-2-[(1R*,2R*)-2-hydroxy-1-phenyl-2-(pyridin-2-yl)ethyl]-2,3-dihydro-1H-isoindol-1-one]	100
O=C1c2cc(-c3nnc(C(F)F)o3)ccc2CN1[C@H](c1ccccn1)[C@@H](O)c1ccc(Cl)cn1 (single isomer, unassigned) [Example 113, 2-[(1R*,2R)-2-(5-chloropyridin-2-yl)-2-hydroxy-1-(pyridin-2-yl)ethyl]-6-[5-(difluoromethyl)-1,3,4-oxadiazol-2-yl]-2,3-dihydro-1H-isoindol-1-one]	100

same assay, conditions: wells without enzyme = 100% inhibition, read-out: HDAC6 inhibitory rate (%) (10 μM)

SMILES	inhibition at 10 µM [%]
O=C1c2cc(-c3nnc(C(F)F)o3)ccc2CN1[C@H](c1ncccn1)[C@@H](O)c1cccc(Cl)c1 (racemic) [Example 133, 2-[(1RS,2SR)-2-(3-chlorophenyl)-2-hydroxy-1-(pyrimidin-2-yl)ethyl]-6-[5-(difluoromethyl)-1,3,4-oxadiazol-2-yl]-2,3-dihydro-1H-isoindol-1-one]	100
O=C1c2cc(-c3nnc(C(F)F)o3)ccc2CN1[C@H](c1ccccn1)[C@@H](O)c1ccc(F)cc1 (single isomer, unassigned) [Example 36, 6-[5-(difluoromethyl)-1,3,4-oxadiazol-2-yl]-2-[(1R*,2S*)-2-(4-fluorophenyl)-2-hydroxy-1-(pyridin-2-yl)ethyl]-2,3-dihydro-1H-isoindol-1-one]	101
O=C1c2cc(-c3nnc(C(F)F)o3)ccc2CN1[C@H](c1ccc(F)cc1)[C@@H](O)c1cccnc1 (single isomer, unassigned) [Example 49, 6-[5-(difluoromethyl)-1,3,4-oxadiazol-2-yl]-2-[(1R*,2S*)-1-(4-fluorophenyl)-2-hydroxy-2-(pyridin-3-yl)ethyl]-2,3-dihydro-1H-isoindol-1-one]	99
O=C1c2cc(-c3nnc(C(F)F)o3)ccc2CN1[C@H](c1cnccn1)[C@@H](O)c1ccc(F)c(F)c1 (single isomer, unassigned) [Example 85, 6-[5-(difluoromethyl)-1,3,4-oxadiazol-2-yl]-2-[(1R*,2S*)-2-(3,4-difluorophenyl)-2-hydroxy-1-(pyrazin-2-yl)ethyl]-2,3-dihydro-1H-isoindol-1-one]	100
O=C1c2cc(-c3nnc(C(F)F)o3)ccc2CN1[C@H](c1ccccc1)[C@@H](O)c1ccccc1 [Example 11, 6-[5-(difluoromethyl)-1,3,4-oxadiazol-2-yl]-2-[(1R,2S)-2-hydroxy-1,2-diphenylethyl]-2,3-dihydro-1H-isoindol-1-one]	99
O=C1c2cc(-c3nnc(C(F)F)o3)ccc2CN1[C@H](c1cnccn1)[C@@H](O)c1cccc(Cl)c1 (single isomer, unassigned) [Example 91, 2-[(1R*,2S*)-2-(3-chlorophenyl)-2-hydroxy-1-(pyrazin-2-yl)ethyl]-6-[5-(difluoromethyl)-1,3,4-oxadiazol-2-yl]-2,3-dihydro-1H-isoindol-1-one]	100
O=C1c2cc(-c3nnc(C(F)F)o3)ccc2CN1[C@H](c1ccc(F)cc1)[C@@H](O)C1CCOCC1 (racemic) [Example 30, 6-[5-(difluoromethyl)-1,3,4-oxadiazol-2-yl]-2-[(1RS,2SR)-1-(4-fluorophenyl)-2-hydroxy-2-(oxan-4-yl)ethyl]-2,3-dihydro-1H-isoindol-1-one]	99
O=C1c2cc(-c3nnc(C(F)F)o3)ccc2CN1[C@H](C1CC1)[C@@H](O)c1ccc(F)cn1 [Example 57, 2-[(1R,2R)-1-cyclopropyl-2-(5-fluoropyridin-2-yl)-2-hydroxyethyl]-6-[5-(difluoromethyl)-1,3,4-oxadiazol-2-yl]-2,3-dihydro-1H-isoindol-1-one]	100

tested on: acetylated tubulin in mouse brain; experiment: Increase in acetylated tubulin in brain (hippocampus, ELISA); type: in vivo; details: male C57BL/6J mouse, oral, 4 h after administration
From the text: A drug was suspended in 0.5% methyl cellulose to prepare a suspension for administration, having a concentration shown in Table 3. The suspension was orally administered into 8 to 10-week old male C57BL/6J mouse, and after the passage of the time shown in Table 3, the brain was taken out, and hippocampus was obtained. The hippocampus was homogenized under RIPA extract (FUJIFILM Wako Pure Chemical Corporation) to which protease inhibitor (Thermo Fisher Scientific) and phosphatase inhibitor (Thermo Fisher Scientific) were added, and centrifuged in 15,000 g for 15 min to prepare a protein extract. The acetylated tubulin and total tubulin in the extract were detected by the following ELISA method. Tubulin antibody (Sigma) was immobilized on 96-well plate (Microlite2+, Thermo Fisher Scientific), and the plate was stored at 4° C. Next day, the plate was washed four times with PBS-T, and blocking buffer (1% BSA/PBS-T) was added thereto, and the reaction was carried out at 37° C. for 2 hr. The plate was washed four times with PBS-T, and the above-mentioned protein extract was added thereto to capture the tubulin on the antibody. The plate was stored at 37° C. for 2 hr, and washed four times with PBS-T. Anti-acetylated tubulin antibody or total tubulin antibody (Cell Signaling Technology), each diluted with blocking buffer, was added thereto, and the reaction was carried out at 37° C. for 1 hr. […] The plate was washed, HRP substrate was added thereto, and the luminescence was measured using a plate reader. The acetylated tubulin and total tubulin were quantified from logistics curve based on dilution series using the mouse hippocampus tissue extract, and the amount of the acetylated tubulin relative to the total tubulin was calculated, and evaluated as an relative tubulin acetylation level. […] After F test for vehicle group and drug group, the significant difference between the two groups was analyzed by Student t-test or Welch test (indicated as *p<0.05, **p<0.01, n.s.: not significant). […]

SMILES	relative tubulin acetylation level (acetylated tubulin relative to total tubulin)
O=C1c2cc(-c3nnc(C(F)F)o3)ccc2CN1[C@H](c1ccc(F)cn1)[C@@H](O)c1ccc(F)cn1 [Example 5, 2-[(1R,2R)-1,2-bis(5-fluoropyridin-2-yl)-2-hydroxyethyl]-6-[5-(difluoromethyl)-1,3,4-oxadiazol-2-yl]-2,3-dihydro-1H-isoindol-1-one]	increase in significant tubulin acetylation level; also recorded: increase in acetylated tubulin
